Measured values reported in the supplement of paper PMC11451515.

Assays:
Details in all cases: 48 h
NOMO1 [1] = experiment: cell viability relative to DMSO control; higher = less cytotoxic
Procedure, shortened: (§1)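 Viability, reported as a per-plate percentage of DMSO wells with cell-free wells as background, came from CellTiter-Glo One luminescence. Reading took place after 48 h at 37°C. Before that, NOMO1 or SEM (500 cells/well) or P12-Ichikawa (1000 cells/well) leukemia cells, adapted for at least four passages in each medium, were seeded in 1536-well plates (5 μl) and pin-dosed with library compounds in DMSO, 47 μM to 0.79 nM over 11 threefold points.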

P12-Ichikawa [2] = experiment: as above
Procedure, shortened: as §1

SEM cells [3] = experiment: as above
Procedure, shortened: as §1

P12-Ichikawa [4] = experiment: AUC of viability dose-response curve (% viability x log10 dose units); higher = less sensitive
Procedure, shortened: (§2)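 Viability of medium-adapted leukemia cells was measured by CellTiter-Glo One luminescence after 48 h at 37°C with library compounds in DMSO. Doses were 11 threefold steps from 47 μM to 0.79 nM, in 1536-well plates at 500 or 1000 cells/well. Signals were normalised per plate to DMSO and cell-free wells and fitted with a four-parameter log-logistic model on log10 dose. Area under the curve was integrated by trapezoidal rule, with curves exceeding full viability scaled and failed quality-control curves removed.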

SEM cells [5] = experiment: as above
Procedure, shortened: as §2

NOMO1 [6] = experiment: as above
Procedure, shortened: as §2

O=C1[C@H](Cc2ccc(O)cc2)N2C(=O)CCN(C(=O)NCc3ccccc3)[C@H]2CN1Cc1cccc2ccccc12
cell viability [%]
Details | NOMO1 [1] | P12-Ichikawa [2] | SEM cells [3]
HPLM + 10% dialyzed FBS, 0.000781 µM | 86.9 | 86.7 | 51.6
HPLM + 10% dialyzed FBS, 0.00234 µM | 82.6 | 90.8 | 86.6
HPLM + 10% dialyzed FBS, 0.00702 µM | 88.9 | 85.3 | 103
HPLM + 10% dialyzed FBS, 0.0211 µM | 97.3 | 89.4 | 93.6
HPLM + 10% dialyzed FBS, 0.0632 µM | 92.1 | 87.9 | 77
HPLM + 10% dialyzed FBS, 0.19 µM | 78.6 | 88.1 | 74.3
HPLM + 10% dialyzed FBS, 0.569 µM | 86.3 | 85.4 | 77.4
HPLM + 10% dialyzed FBS, 1.71 µM | 85 | 85.5 | 62.8
HPLM + 10% dialyzed FBS, 5.12 µM | 74.9 | 91.2 | 64.8
HPLM + 10% dialyzed FBS, 15.4 µM | 18.3 | 47.9 | 12.3
HPLM + 10% dialyzed FBS, 46.1 µM | 74 | 85.8 | 51.3
RPMI 5 mM glucose + 10% FBS, 0.000781 µM | 81.7 | 76.6 | 64.9
RPMI 5 mM glucose + 10% FBS, 0.00234 µM | 78.7 | 84.4 | 108
RPMI 5 mM glucose + 10% FBS, 0.00702 µM | 86.9 | 76.3 | 99.7
RPMI 5 mM glucose + 10% FBS, 0.0211 µM | 81 | 83 | 98.1
RPMI 5 mM glucose + 10% FBS, 0.0632 µM | 83.1 | 88.6 | 76.7
RPMI 5 mM glucose + 10% FBS, 0.19 µM | 73.9 | 87.7 | 93.6
RPMI 5 mM glucose + 10% FBS, 0.569 µM | 83.7 | 83 | 86.2
RPMI 5 mM glucose + 10% FBS, 1.71 µM | 73.5 | 74 | 83.9
RPMI 5 mM glucose + 10% FBS, 5.12 µM | 73.1 | 84.1 | 78.6
RPMI 5 mM glucose + 10% FBS, 15.4 µM | 10.6 | 35 | 15.2
RPMI 5 mM glucose + 10% FBS, 46.1 µM | 81.1 | 84.2 | 65.6
RPMI 5 mM glucose + 10% dialyzed FBS, 0.000781 µM | 76.7 | 77.4 | 55.1
RPMI 5 mM glucose + 10% dialyzed FBS, 0.00234 µM | 89.9 | 78.2 | 101
RPMI 5 mM glucose + 10% dialyzed FBS, 0.00702 µM | 89.5 | 80.4 | 94.7
RPMI 5 mM glucose + 10% dialyzed FBS, 0.0211 µM | 104 | 79.5 | 95
RPMI 5 mM glucose + 10% dialyzed FBS, 0.0632 µM | 92.5 | 85 | 83
RPMI 5 mM glucose + 10% dialyzed FBS, 0.19 µM | 89.5 | 82.1 | 93.3
RPMI 5 mM glucose + 10% dialyzed FBS, 0.569 µM | 84.2 | 77.3 | 74.1
RPMI 5 mM glucose + 10% dialyzed FBS, 1.71 µM | 82.7 | 75.4 | 73.8
RPMI 5 mM glucose + 10% dialyzed FBS, 5.12 µM | 79.2 | 81.1 | 73.3
RPMI 5 mM glucose + 10% dialyzed FBS, 15.4 µM | 13.7 | 33.2 | 15.3
RPMI 5 mM glucose + 10% dialyzed FBS, 46.1 µM | 82.8 | 72.5 | 63.2

AUC of viability dose-response curve
Details | HPLM + 10% dialyzed FBS | RPMI 5 mM glucose + 10% FBS | RPMI 5 mM glucose + 10% dialyzed FBS
P12-Ichikawa [4] | 404 | 375 | 361
SEM cells [5] | 334 | 384 | 363

C/C=C/C/C=C/CCC(=O)[C@H]1O[C@H]1C(N)=O
cell viability [%], SEM cells [3]
Details | HPLM + 10% dialyzed FBS | RPMI 5 mM glucose + 10% FBS
0.000781 µM | 105 | 106
0.00234 µM | 107 | 117
0.00702 µM | 118 | 132
0.0211 µM | 123 | 110
0.0632 µM | 117 | 121
0.19 µM | 126 | 120
0.569 µM | 109 | 132
1.71 µM | 124 | 111
5.12 µM | 113 | 128
15.4 µM | 112 | 118
46.1 µM | 71.5 | 55.3

AUC of viability dose-response curve
Details | NOMO1 [6] | P12-Ichikawa [4] | SEM cells [5]
HPLM + 10% dialyzed FBS | 457 | 470 | 466
RPMI 5 mM glucose + 10% FBS | 458 | 473 | 464
RPMI 5 mM glucose + 10% dialyzed FBS | 476 | 469 | 464

C[C@]\12CC[C@H](O)CC1=C/C[C@@H]3[C@@H]2CC[C@@]\4(C)[C@H]3C\C=C4C5=CN=CC=C5
AUC of viability dose-response curve
Details | NOMO1 [6] | P12-Ichikawa [4] | SEM cells [5]
HPLM + 10% dialyzed FBS | 472 | 468 | 469
RPMI 5 mM glucose + 10% FBS | 472 | 460 | 456
RPMI 5 mM glucose + 10% dialyzed FBS | 454 | 459 | 469
